In patent publication US20070036717A1, “Chemoradiotherapy with TS-1/camptothecins” (The Kitasato Gakuen Foundation, priority 2005, published 2007):
Where a name gives a salt, the structure may show the parent alone.

Assay: Adverse reactions (NCI-CTC Version 2.0), maximum tolerated and recommended dose of CPT-11
Type: in vivo, human patients
Conditions: with TS-1 80 mg/m^2/day and radiation 45 Gy
Protocol: A Phase I/II clinical study of preoperative chemoradiotherapy with TS-1/CPT-11 was conducted to estimate the maximum tolerated dose (MTD) and recommended dose (RD) of CPT-11. The subjects had cancer of the rectum (excluding the rectosigmoid (Rs)) with a preoperative diagnosis of T3′ (tumors showing invasion through the muscularis propria into the subserosa, or into the nonperitonealized pericolic or perirectal tissues) or T4′ (tumors perforating the visceral peritoneum and/or directly invading other organs or structures), and N0 to N3′. Response rates and safety (percentage of adverse reactions and percentage of complications) were also evaluated with RD administration. (2) Subject selection
Level 1 (CPT-11, 40 mg/m^2) was the starting dose, and dose was titrated until the maximum tolerated dose could be estimated. […]
After the level of the maximum tolerated dose was confirmed, the recommended dose was determined by reducing the 10 mg/m^2 (one level) increments.
Maximum tolerated dose was determined on the basis of the adverse reactions observed during the first week after completing chemotherapy. (Maximum tolerated dose was evaluated in the modality of coadministration with radiation.)
Side effects were evaluated according to the National Cancer Institute Common Toxicity Criteria (Version 2.0; NCI-CTC). Effects not on the NCI-CTC form were scored on the following five-grade scale.

Structure (SMILES): CCc1c2c(nc3ccc(OC(=O)N4CCC(N5CCCCC5)CC4)cc13)-c1cc3c(c(=O)n1C2)COC(=O)[C@]3(O)CC [CPT-11, (4S)-4a, 11-diethyl-4β-hydroxy-9-[[4-(piperidin-1-yl)piperidin-1-yl]carbonyloxy]1H-pyrano[3′,4′:6,7]indolizino[1,2-b]quinoline-3,14-(4H,12H)dione hydrochloride salt]
- final recommended dose of CPT-11: 80 mg/m^2
